Test results published in publication PMC9067978, “Design, synthesis, and molecular docking studies of novel pomalidomide-based PROTACs as potential anti-cancer agents targeting EGFR^WT and EGFR^T790M” (Journal of Enzyme Inhibition and Medicinal Chemistry, 2022).

What was measured:
EGFR^T790M = molecular target: T1, EGFR^T790M (Homo sapiens, UniProt P00533, T790M); test: EGFR^T790M kinase inhibitory assay (HTRF); format: biochemical; settings: ATP 1.65 µM, mean ± S.D of three experiments, read-out: EGFR^790M IC50
T1 construct: purchased Sigma
T1 sequence (P00533 25-1210 T790M): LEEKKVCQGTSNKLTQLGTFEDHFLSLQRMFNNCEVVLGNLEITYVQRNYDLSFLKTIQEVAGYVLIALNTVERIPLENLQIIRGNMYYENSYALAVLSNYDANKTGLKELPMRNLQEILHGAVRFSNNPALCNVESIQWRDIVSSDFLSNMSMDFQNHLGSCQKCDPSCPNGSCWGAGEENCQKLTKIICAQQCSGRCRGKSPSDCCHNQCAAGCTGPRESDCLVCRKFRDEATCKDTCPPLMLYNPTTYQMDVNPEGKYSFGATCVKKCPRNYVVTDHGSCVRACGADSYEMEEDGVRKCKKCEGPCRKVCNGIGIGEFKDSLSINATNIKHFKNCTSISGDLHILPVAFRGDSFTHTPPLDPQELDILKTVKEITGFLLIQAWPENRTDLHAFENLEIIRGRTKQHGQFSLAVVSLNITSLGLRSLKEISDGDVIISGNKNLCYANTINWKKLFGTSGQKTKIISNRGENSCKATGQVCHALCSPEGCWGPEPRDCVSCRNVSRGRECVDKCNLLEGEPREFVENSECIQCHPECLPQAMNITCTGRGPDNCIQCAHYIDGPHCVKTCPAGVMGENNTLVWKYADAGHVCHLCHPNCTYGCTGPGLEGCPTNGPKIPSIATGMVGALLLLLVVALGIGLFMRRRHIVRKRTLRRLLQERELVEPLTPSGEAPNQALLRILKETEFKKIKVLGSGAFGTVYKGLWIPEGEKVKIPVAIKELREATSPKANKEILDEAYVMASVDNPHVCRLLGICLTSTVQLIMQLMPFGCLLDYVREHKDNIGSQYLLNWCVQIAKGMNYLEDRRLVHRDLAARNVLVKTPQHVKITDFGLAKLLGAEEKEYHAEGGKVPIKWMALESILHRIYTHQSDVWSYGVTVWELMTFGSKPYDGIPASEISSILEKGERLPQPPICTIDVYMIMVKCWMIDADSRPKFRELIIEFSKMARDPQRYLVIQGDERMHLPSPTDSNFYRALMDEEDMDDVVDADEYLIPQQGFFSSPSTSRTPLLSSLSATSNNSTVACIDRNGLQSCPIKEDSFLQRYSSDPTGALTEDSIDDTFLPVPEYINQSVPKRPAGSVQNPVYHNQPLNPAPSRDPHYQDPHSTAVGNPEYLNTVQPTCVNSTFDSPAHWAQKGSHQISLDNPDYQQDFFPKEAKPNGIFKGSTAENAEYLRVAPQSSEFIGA
Experimental: This test used HTRF[44] assay with EGFR^WT and EGFR^T790M (Sigma). For the first 5 minutes, the evaluated compounds were incubated with EGFR^WT and/or EGFR^T790M and their substrates in the enzymatic buffer. […] The assay was performed at 37 °C for 30 minutes. The addition of EDTA-containing detection reagents halted the process. After one hour detection period, GraphPad Prism 5.0 was used to calculate the IC50 values. For each concentration, three separate trials were carried out.

EGFR = molecular target: T2, EGFR (Homo sapiens, UniProt P00533); test: Western blotting, EGFR degradation in A549 cells; format: cell-based
T2 construct: EGFR degradation activities of compounds in A549 cells; endogenous in cells; host or cells: A549
T2 sequence (P00533 25-1210): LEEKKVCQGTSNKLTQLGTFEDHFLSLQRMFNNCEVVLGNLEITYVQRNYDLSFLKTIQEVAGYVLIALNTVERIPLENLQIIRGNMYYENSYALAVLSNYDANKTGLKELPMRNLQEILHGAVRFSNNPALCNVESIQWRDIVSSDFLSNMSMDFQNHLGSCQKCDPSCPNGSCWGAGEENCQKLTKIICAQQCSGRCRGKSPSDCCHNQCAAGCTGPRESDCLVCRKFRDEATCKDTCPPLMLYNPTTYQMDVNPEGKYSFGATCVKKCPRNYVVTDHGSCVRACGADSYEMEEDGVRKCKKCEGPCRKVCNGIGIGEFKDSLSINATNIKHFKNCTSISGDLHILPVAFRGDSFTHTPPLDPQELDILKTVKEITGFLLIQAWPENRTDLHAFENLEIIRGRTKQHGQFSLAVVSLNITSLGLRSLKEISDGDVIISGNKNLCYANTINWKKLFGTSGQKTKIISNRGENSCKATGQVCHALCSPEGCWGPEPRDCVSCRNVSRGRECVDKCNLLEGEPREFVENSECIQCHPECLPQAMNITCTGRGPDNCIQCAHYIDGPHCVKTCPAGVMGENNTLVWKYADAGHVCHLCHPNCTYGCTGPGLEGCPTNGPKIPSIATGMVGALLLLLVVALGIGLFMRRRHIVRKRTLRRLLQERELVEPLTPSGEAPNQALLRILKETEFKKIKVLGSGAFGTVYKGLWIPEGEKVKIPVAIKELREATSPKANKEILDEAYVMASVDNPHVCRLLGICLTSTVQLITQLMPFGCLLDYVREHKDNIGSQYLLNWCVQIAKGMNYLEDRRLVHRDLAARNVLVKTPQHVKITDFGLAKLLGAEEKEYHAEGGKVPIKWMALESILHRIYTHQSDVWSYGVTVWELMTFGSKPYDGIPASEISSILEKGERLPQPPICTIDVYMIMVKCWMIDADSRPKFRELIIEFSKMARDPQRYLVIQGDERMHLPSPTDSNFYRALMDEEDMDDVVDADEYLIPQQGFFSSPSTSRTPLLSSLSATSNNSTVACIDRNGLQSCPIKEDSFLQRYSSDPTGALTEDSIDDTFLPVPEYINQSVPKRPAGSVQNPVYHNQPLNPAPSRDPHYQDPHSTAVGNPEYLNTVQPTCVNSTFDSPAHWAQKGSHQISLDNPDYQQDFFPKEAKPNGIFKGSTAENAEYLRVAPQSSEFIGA
Experimental: Following this, the target compounds 15–21 tethering various E3 ligases ligand were chosen as representative PROTACs for further degradation study based on temporal data.
Figure 4. (A) EGFR degradation activities of compounds in A549 cells. Cells were treated for 48 h with concentration of 0.1 and 1 µM. (B) Effects of concentration-dependent EGFR degradation by compounds 15–21 in A549 cell lines. Cells were treated for 48 h with a concentration from 1 nM to 10 µM. EGFR protein was examined by Western blotting analysis and EGFR degradation rate was quantified by densitometry and normalised to the corresponding density of β-actin protein (n ¼ 3). TEXT PRINTED IN THE PICTURE: (B) Comp 15: DC50 = 43.4 nm | (B) Comp 16: DC50= 32.9 nm DOUBTS OF THE COPYIST ABOUT THIS PICTURE: Comp 15, DC50: 43.4 is small blurred print; the 3 could be 8 and the digits are not certain / Comp 16, DC50: 32.9 is small blurred print; the 3 could be 8 and the 9 could be 8 or 0
We set nine concentration gradients ranging from […] to 10 µM to determine the degradation activity of all tested compounds and calculated the DC50 (concentration that caused deletion of 50% of EGFR) values.
At a concentration of 100 nM, the time-dependent degradation activities of compounds 15–21 were also examined (Figure 5(A)).
Figure 5. (A) EGFR time-dependent degradation by compound 16 in A549 cell lines. Cells were treated with100 nM of 15–21 for indicated time points. Western blotting was used to evaluate EGFR protein, and densitometry was used to measure EGFR degradation, which was adjusted to the density of β-actin protein (n ¼2). (B) Compounds 15 and 16 have EGFR degradation and phosphorylation inhibitory action in A549 cells. The cells were exposed to concentrations of 0.1, 0.3, and 1 µM. Erlotinib were utilised for comparison. TEXT PRINTED IN THE PICTURE: (A) Comp 15: Dmax = 85 % @ 96 h; Degradation: 9 (4 h; 100 nM); Degradation: 22 (8 h; 100 nM); Degradation: 42 (12 h; 100 nM); Degradation: 83 (24 h; 100 nM); Degradation: 84 (36 h; 100 nM); Degradation: 82 (48 h; 100 nM); Degradation: 82 (72 h; 100 nM); Degradation: 85 (96 h; 100 nM) | (A) Comp 16: Dmax = 96 % @72 h; Degradation: 32 (4 h; 100 nM); Degradation: 43 (8 h; 100 nM); Degradation: 67 (12 h; 100 nM); Degradation: 69 (24 h; 100 nM); Degradation: 78 (36 h; 100 nM); Degradation: 85 (48 h; 100 nM); Degradation: 96 (72 h; 100 nM); Degradation: 94 (96 h; 100 nM) DOUBTS OF THE COPYIST ABOUT THIS PICTURE: Comp 15, Dmax: print is blurred, 85 % @ 96 h is the best reading (85 or 86) / Comp 16, Dmax: print is small and blurred, 96 % @72 h is the best reading (96 or 95; the % sign is unclear) / Comp 15, Degradation row: print is blurred, 83/84/82/82/85 are best readings (3, 5, 8 are hard to tell apart) / Comp 16, Degradation row: print is blurred, 67/69/78/85/96/94 are best readings (5, 6, 8, 9 are hard to tell apart) / The Degradation rows are printed under the blot lanes with no unit. The value 0 under the 0.1 % DMSO control lane was not assigned to any compound.
Cells were seeded in 6-well plates at 1 × 10^6 per well, incubated at 37 °C with 5% CO2 for 24 h before drug exposure. Cells were treated with different concentrations of synthesised compounds for […], then collected and suspended in lysis buffer (Beyotime) and centrifuged for 20 min at 12000 rpm, later removed the insoluble material. […] The results were detected by an enhanced chemiluminescence system (Mill-pore). […]

MCF-7 [1] = test: Annexin V/propidium iodide apoptosis assay, MCF-7; format: cell-based, human; settings: 3.92 µM, 24 hours
Experimental: The double staining Annexin V/propidium iodide technique was performed to assess the mechanism of cell death and apoptosis-inducing activity.[46] […] As shown in (Figure 7 (A and B).
The negative control was chosen to be DMSO. The cells were then collected and washed twice in PBS. The cells were separated using centrifugation. An apoptosis detection kit (BD Biosciences, SanJose, CA) was used in this investigation. Following the manufacturer’s instructions, the cells were dyed with Annexin V-FITC and propidium iodide (PI) in the binding buffer for 20 minutes at 37 °C in the darkness. A flow cytometer was used to assess the binding of Annexin V-FITC and PI. The frequencies in all quadrants were investigated using the Flowjo program.[53]

caspase-3 = test: Caspase-3 determination (ELISA) in HepG-2 cells; format: cell-based, human; settings: HepG-2, 3.02 µM, 24 hours
Experimental: Caspase-3 activation was measured using a Caspase-3 ELISA Kit (KHO1091).

MCF-7 [2] = test: MTT anti-proliferative assay, MCF-7
Experimental: (§1) The anti-proliferative activity was quantified in the following way. At a density of 3–8 × 10^3 cells per well, human cancer cell lines were introduced to 96-well plates. The wells were then incubated at 37 °C for 12 hours in 5% CO2 incubator. To determine the DMSO content, the culture media was swapped with 0.1 ml of fresh medium containing graded amounts of the test compounds for each well. Incubation time for the wells was two days. The cells were then cultured in 100 µl MTT solution (5 µg ml^−1) for another 4 hours in each well.
(§2) The absorbance of each well was measured at 490 nm with an automated ELISA reader system (TECAN, CHE) after MTT-formazan crystals were dissolved in 100 µl of DMSO. The IC50 values were calculated using nonlinear regression fitting models (Graph Pad, Prism Version 5). The results were expressed as means ± SD and were based on the average of three separate, duplicate trials.

HCT-116 = test: MTT anti-proliferative assay, HCT-116
Experimental: as §1, §2

[3] = ratio of cytotoxic IC50 to erlotinib

Cn1c(=O)c(C(=O)NNCCOCCOCC(=O)Nc2cccc3c2C(=O)N(C2CCC(=O)NC2=O)C3=O)nc2ccccc21 (stereo not drawn) [Compound 16, N-(2-(2,6-dioxopiperidin-3-yl)-1,3-dioxoisoindolin-4-yl)-2-(2-(2-(2-(4-methyl-3-oxo-3,4-dihydroquinoxaline-2-carbonyl) hydrazinyl)ethoxy)ethoxy) acetamide]
IC50 (EGFR^T790M): 4.02 ± 0.19 µM | Dmax at 0.1 µM (EGFR; A549, A549 cells, 100 nM, time course, reached at 96 h (15) and 72 h (16), read-out: Dmax, maximum EGFR degradation rate): 96% | DC50 (EGFR; A549 cells, 48 h, Western blotting densitometry, read-out: DC50 (concentration that caused deletion of 50% of EGFR)): 0.0329 µM | concentration-dependent EGFR degradation, in words (EGFR; A549 cells, 48 h, concentration series up to 10 µM): hook effect | cellular apoptosis, early and late, times vs control, MCF-7 (MCF-7 [1]): ~9 times | early apoptosis ratio, MCF-7 (MCF-7 [1]): 4.18% | late apoptosis ratio, MCF-7 (MCF-7 [1]): 5.07% | increase of caspase-3 level vs control cells (caspase-3): 6.31 fold | IC50 (MCF-7 [2]; Homo sapiens, MCF7, read-out: IC50 MCF-7): 3.92 ± 0.19 µM | folds more active than erlotinib, MCF-7 (MCF-7 [2]; [3]): 5.55 folds | IC50 (HCT-116; Homo sapiens, HCT-116, read-out: IC50 HCT-116): 3.32 ± 0.15 µM | folds more active than erlotinib, HCT-116 (HCT-116; [3]): 5.04 folds
